According to ChEMBL document CHEMBL3044736, “Synthesis, characterization, solvatochromic properties, and antimicrobial evaluation of 5-acetyl-2-thioxo-dihydro-pyrimidine-4,6-dione-based chalcones” (2013):
Converted amounts (≈) assume the structure as drawn.

How the values were obtained:
Type in all cases: functional
Trichophyton rubrum [1] = assay: Antimicrobial activity against Trichophyton rubrum MTCC 296 assessed as diameter of growth inhibition zone at 250 ug/ml after 48-96 hr by agar cup diffusion method; conditions: read-out: DIZ
Trichophyton rubrum [2] = assay: Antimicrobial activity against Trichophyton rubrum MTCC 296 by agar cup diffusion method
Streptococcus pyogenes [3] = assay: Antimicrobial activity against Streptococcus pyogenes MTCC 442 assessed as diameter of growth inhibition zone at 100 ug/ml after 18-24 hr by agar cup diffusion method; conditions: read-out: DIZ
Streptococcus pyogenes [4] = assay: Antimicrobial activity against Streptococcus pyogenes MTCC 442 assessed as diameter of growth inhibition zone at 250 ug/ml after 18-24 hr by agar cup diffusion method; conditions: read-out: DIZ
Aspergillus clavatus [5] = assay: Antimicrobial activity against Aspergillus clavatus MTCC 1323 assessed as diameter of growth inhibition zone at 100 ug/ml after 48-96 hr by agar cup diffusion method; conditions: read-out: DIZ
Candida albicans [6] = assay: Antimicrobial activity against Candida albicans MTCC 227 assessed as diameter of growth inhibition zone at 250 ug/ml after 48-96 hr by agar cup diffusion method; conditions: read-out: DIZ
Trichophyton rubrum [7] = assay: Antimicrobial activity against Trichophyton rubrum MTCC 296 assessed as diameter of growth inhibition zone at 50 ug/ml after 48-96 hr by agar cup diffusion method; conditions: read-out: DIZ
Klebsiella pneumoniae [8] = assay: Antimicrobial activity against Klebsiella pneumoniae MTCC 109 assessed as diameter of growth inhibition zone at 25 ug/ml after 18-24 hr by agar cup diffusion method; conditions: read-out: DIZ
Klebsiella pneumoniae [9] = assay: Antimicrobial activity against Klebsiella pneumoniae MTCC 109 assessed as diameter of growth inhibition zone at 50 ug/ml after 18-24 hr by agar cup diffusion method; conditions: read-out: DIZ
Pseudomonas aeruginosa [10] = assay: Antimicrobial activity against Pseudomonas aeruginosa MTCC 1688 by agar cup diffusion method
Aspergillus clavatus [11] = assay: Antimicrobial activity against Aspergillus clavatus MTCC 1323 assessed as diameter of growth inhibition zone at 250 ug/ml after 48-96 hr by agar cup diffusion method; conditions: read-out: DIZ
Klebsiella pneumoniae [12] = assay: Antimicrobial activity against Klebsiella pneumoniae MTCC 109 assessed as diameter of growth inhibition zone at 250 ug/ml after 18-24 hr by agar cup diffusion method; conditions: read-out: DIZ
Candida albicans [13] = assay: Antimicrobial activity against Candida albicans MTCC 227 assessed as diameter of growth inhibition zone at 100 ug/ml after 48-96 hr by agar cup diffusion method; conditions: read-out: DIZ
Staphylococcus aureus [14] = assay: Antimicrobial activity against Staphylococcus aureus MTCC 96 by agar cup diffusion method
Staphylococcus aureus [15] = assay: Antimicrobial activity against Staphylococcus aureus MTCC 96 assessed as diameter of growth inhibition zone at 50 ug/ml after 18-24 hr by agar cup diffusion method; conditions: read-out: DIZ
Pseudomonas aeruginosa [16] = assay: Antimicrobial activity against Pseudomonas aeruginosa MTCC 1688 assessed as diameter of growth inhibition zone at 100 ug/ml after 18-24 hr by agar cup diffusion method; conditions: read-out: DIZ
Aspergillus clavatus [17] = assay: Antimicrobial activity against Aspergillus clavatus MTCC 1323 assessed as diameter of growth inhibition zone at 50 ug/ml after 48-96 hr by agar cup diffusion method; conditions: read-out: DIZ
Staphylococcus aureus [18] = assay: Antimicrobial activity against Staphylococcus aureus MTCC 96 assessed as diameter of growth inhibition zone at 100 ug/ml after 18-24 hr by agar cup diffusion method; conditions: read-out: DIZ
Pseudomonas aeruginosa [19] = assay: Antimicrobial activity against Pseudomonas aeruginosa MTCC 1688 assessed as diameter of growth inhibition zone at 250 ug/ml after 18-24 hr by agar cup diffusion method; conditions: read-out: DIZ
Penicillium [20] = assay: Antimicrobial activity against Penicillium wild strain assessed as diameter of growth inhibition zone at 50 ug/ml after 48-96 hr by agar cup diffusion method; conditions: read-out: DIZ
Streptococcus pyogenes [21] = assay: Antimicrobial activity against Streptococcus pyogenes MTCC 442 assessed as diameter of growth inhibition zone at 25 ug/ml after 18-24 hr by agar cup diffusion method; conditions: read-out: DIZ
Aspergillus clavatus [22] = assay: Antimicrobial activity against Aspergillus clavatus MTCC 1323 by agar cup diffusion method
Pseudomonas aeruginosa [23] = assay: Antimicrobial activity against Pseudomonas aeruginosa MTCC 1688 assessed as diameter of growth inhibition zone at 25 ug/ml after 18-24 hr by agar cup diffusion method; conditions: read-out: DIZ
Candida albicans [24] = assay: Antimicrobial activity against Candida albicans MTCC 227 assessed as diameter of growth inhibition zone at 50 ug/ml after 48-96 hr by agar cup diffusion method; conditions: read-out: DIZ
Streptococcus pyogenes [25] = assay: Antimicrobial activity against Streptococcus pyogenes MTCC 442 assessed as diameter of growth inhibition zone at 50 ug/ml after 18-24 hr by agar cup diffusion method; conditions: read-out: DIZ
Candida albicans [26] = assay: Antimicrobial activity against Candida albicans MTCC 227 by agar cup diffusion method
Penicillium [27] = assay: Antimicrobial activity against Penicillium wild strain by agar cup diffusion method
Streptococcus pyogenes [28] = assay: Antimicrobial activity against Streptococcus pyogenes MTCC 442 by agar cup diffusion method
Penicillium [29] = assay: Antimicrobial activity against Penicillium wild strain assessed as diameter of growth inhibition zone at 25 ug/ml after 48-96 hr by agar cup diffusion method; conditions: read-out: DIZ
Pseudomonas aeruginosa [30] = assay: Antimicrobial activity against Pseudomonas aeruginosa MTCC 1688 assessed as diameter of growth inhibition zone at 50 ug/ml after 18-24 hr by agar cup diffusion method; conditions: read-out: DIZ
Candida albicans [31] = assay: Antimicrobial activity against Candida albicans MTCC 227 assessed as diameter of growth inhibition zone at 25 ug/ml after 48-96 hr by agar cup diffusion method; conditions: read-out: DIZ
Escherichia coli [32] = assay: Antimicrobial activity against Escherichia coli MTCC 443 assessed as diameter of growth inhibition zone at 50 ug/ml after 18-24 hr by agar cup diffusion method; conditions: read-out: DIZ
Klebsiella pneumoniae [33] = assay: Antimicrobial activity against Klebsiella pneumoniae MTCC 109 assessed as diameter of growth inhibition zone at 100 ug/ml after 18-24 hr by agar cup diffusion method; conditions: read-out: DIZ
Penicillium [34] = assay: Antimicrobial activity against Penicillium wild strain assessed as diameter of growth inhibition zone at 250 ug/ml after 48-96 hr by agar cup diffusion method; conditions: read-out: DIZ
Klebsiella pneumoniae [35] = assay: Antimicrobial activity against Klebsiella pneumoniae MTCC 109 by agar cup diffusion method
Escherichia coli [36] = assay: Antimicrobial activity against Escherichia coli MTCC 443 by agar cup diffusion method
Staphylococcus aureus [37] = assay: Antimicrobial activity against Staphylococcus aureus MTCC 96 assessed as diameter of growth inhibition zone at 250 ug/ml after 18-24 hr by agar cup diffusion method; conditions: read-out: DIZ
Aspergillus clavatus [38] = assay: Antimicrobial activity against Aspergillus clavatus MTCC 1323 assessed as diameter of growth inhibition zone at 25 ug/ml after 48-96 hr by agar cup diffusion method; conditions: read-out: DIZ
Staphylococcus aureus [39] = assay: Antimicrobial activity against Staphylococcus aureus MTCC 96 assessed as diameter of growth inhibition zone at 25 ug/ml after 18-24 hr by agar cup diffusion method; conditions: read-out: DIZ
Escherichia coli [40] = assay: Antimicrobial activity against Escherichia coli MTCC 443 assessed as diameter of growth inhibition zone at 100 ug/ml after 18-24 hr by agar cup diffusion method; conditions: read-out: DIZ
Penicillium [41] = assay: Antimicrobial activity against Penicillium wild strain assessed as diameter of growth inhibition zone at 100 ug/ml after 48-96 hr by agar cup diffusion method; conditions: read-out: DIZ
Trichophyton rubrum [42] = assay: Antimicrobial activity against Trichophyton rubrum MTCC 296 assessed as diameter of growth inhibition zone at 100 ug/ml after 48-96 hr by agar cup diffusion method; conditions: read-out: DIZ
Trichophyton rubrum [43] = assay: Antimicrobial activity against Trichophyton rubrum MTCC 296 assessed as diameter of growth inhibition zone at 25 ug/ml after 48-96 hr by agar cup diffusion method; conditions: read-out: DIZ
Escherichia coli [44] = assay: Antimicrobial activity against Escherichia coli MTCC 443 assessed as diameter of growth inhibition zone at 250 ug/ml after 18-24 hr by agar cup diffusion method; conditions: read-out: DIZ
Escherichia coli [45] = assay: Antimicrobial activity against Escherichia coli MTCC 443 assessed as diameter of growth inhibition zone at 25 ug/ml after 18-24 hr by agar cup diffusion method; conditions: read-out: DIZ

SMILES: O=C(/C=C/c1ccccc1Cl)C1C(=O)NC(=S)NC1=O
- zone of inhibition at 250 µg/mL (Trichophyton rubrum [1]): 21 mm
- MFC (Trichophyton rubrum [2]): 500 µg/mL (≈ 1620 µM)
- MIC (Trichophyton rubrum [2]): 500 µg/mL (≈ 1620 µM)
- zone of inhibition at 100 µg/mL (Streptococcus pyogenes [3]): 15 mm
- zone of inhibition at 250 µg/mL (Streptococcus pyogenes [4]): 16 mm
- zone of inhibition at 100 µg/mL (Aspergillus clavatus [5]): 21 mm
- zone of inhibition at 250 µg/mL (Candida albicans [6]): 23 mm
- zone of inhibition at 50 µg/mL (Trichophyton rubrum [7]): 20 mm
- zone of inhibition at 25 µg/mL (Klebsiella pneumoniae [8]): 12 mm
- zone of inhibition at 50 µg/mL (Klebsiella pneumoniae [9]): 13 mm
- MBC (Pseudomonas aeruginosa [10]): 500 µg/mL (≈ 1620 µM)
- MIC (Pseudomonas aeruginosa [10]): 250 µg/mL (≈ 810 µM)
- zone of inhibition at 250 µg/mL (Aspergillus clavatus [11]): 22 mm
- zone of inhibition at 250 µg/mL (Klebsiella pneumoniae [12]): 18 mm
- zone of inhibition at 100 µg/mL (Candida albicans [13]): 22 mm
- MBC (Staphylococcus aureus [14]): 500 µg/mL (≈ 1620 µM)
- MIC (Staphylococcus aureus [14]): 250 µg/mL (≈ 810 µM)
- zone of inhibition at 50 µg/mL (Staphylococcus aureus [15]): 14 mm
- zone of inhibition at 100 µg/mL (Pseudomonas aeruginosa [16]): 17 mm
- zone of inhibition at 50 µg/mL (Aspergillus clavatus [17]): 19 mm
- zone of inhibition at 100 µg/mL (Staphylococcus aureus [18]): 17 mm
- zone of inhibition at 250 µg/mL (Pseudomonas aeruginosa [19]): 18 mm
- zone of inhibition at 50 µg/mL (Penicillium [20]): 18 mm
- zone of inhibition at 25 µg/mL (Streptococcus pyogenes [21]): 13 mm
- MFC (Aspergillus clavatus [22]): > 1000 µg/mL
- MIC (Aspergillus clavatus [22]): > 1000 µg/mL
- zone of inhibition at 25 µg/mL (Pseudomonas aeruginosa [23]): 10 mm
- zone of inhibition at 50 µg/mL (Candida albicans [24]): 22 mm
- zone of inhibition at 50 µg/mL (Streptococcus pyogenes [25]): 14 mm
- MFC (Candida albicans [26]): > 1000 µg/mL
- MIC (Candida albicans [26]): 250 µg/mL (≈ 810 µM)
- MFC (Penicillium [27]): > 1000 µg/mL
- MIC (Penicillium [27]): > 1000 µg/mL
- MBC (Streptococcus pyogenes [28]): 250 µg/mL (≈ 810 µM)
- MIC (Streptococcus pyogenes [28]): 250 µg/mL (≈ 810 µM)
- zone of inhibition at 25 µg/mL (Penicillium [29]): 18 mm
- zone of inhibition at 50 µg/mL (Pseudomonas aeruginosa [30]): 14 mm
- zone of inhibition at 25 µg/mL (Candida albicans [31]): 21 mm
- zone of inhibition at 50 µg/mL (Escherichia coli [32]): 14 mm
- zone of inhibition at 100 µg/mL (Klebsiella pneumoniae [33]): 15 mm
- zone of inhibition at 250 µg/mL (Penicillium [34]): 22 mm
- MBC (Klebsiella pneumoniae [35]): 250 µg/mL (≈ 810 µM)
- MIC (Klebsiella pneumoniae [35]): 200 µg/mL (≈ 648 µM)
- MBC (Escherichia coli [36]): 500 µg/mL (≈ 1620 µM)
- MIC (Escherichia coli [36]): 250 µg/mL (≈ 810 µM)
- zone of inhibition at 250 µg/mL (Staphylococcus aureus [37]): 18 mm
- zone of inhibition at 25 µg/mL (Aspergillus clavatus [38]): 18 mm
- zone of inhibition at 25 µg/mL (Staphylococcus aureus [39]): 10 mm
- zone of inhibition at 100 µg/mL (Escherichia coli [40]): 15 mm
- zone of inhibition at 100 µg/mL (Penicillium [41]): 21 mm
- zone of inhibition at 100 µg/mL (Trichophyton rubrum [42]): 19 mm
- zone of inhibition at 25 µg/mL (Trichophyton rubrum [43]): 19 mm
- zone of inhibition at 250 µg/mL (Escherichia coli [44]): 16 mm
- zone of inhibition at 25 µg/mL (Escherichia coli [45]): 13 mm
